# US20030083469A1, “Allosteric control of nuclear hormone receptors” (The Salk Institute for Biological Studies, priority 1995, published 2003)
# What was measured:
# Nurrl+RXR LBD = molecular target: T1, Nurrl+RXR LBD (Homo sapiens, UniProt P19793); assay: Transient transfection of Nurrl with RXR LBD on NBRE x3 reporter; format: cell-based, mouse Nurrl, human RXRα; settings: NBRE×3; 100 nM LG69
# T1 construct: or the human RXRα LBD (Glu 203 -Thr 462); expressed in transfected cells; host or cells: CV-1
# T1 sequence (Q06219 whole entry partner, one chain of several, the tested form may be a part): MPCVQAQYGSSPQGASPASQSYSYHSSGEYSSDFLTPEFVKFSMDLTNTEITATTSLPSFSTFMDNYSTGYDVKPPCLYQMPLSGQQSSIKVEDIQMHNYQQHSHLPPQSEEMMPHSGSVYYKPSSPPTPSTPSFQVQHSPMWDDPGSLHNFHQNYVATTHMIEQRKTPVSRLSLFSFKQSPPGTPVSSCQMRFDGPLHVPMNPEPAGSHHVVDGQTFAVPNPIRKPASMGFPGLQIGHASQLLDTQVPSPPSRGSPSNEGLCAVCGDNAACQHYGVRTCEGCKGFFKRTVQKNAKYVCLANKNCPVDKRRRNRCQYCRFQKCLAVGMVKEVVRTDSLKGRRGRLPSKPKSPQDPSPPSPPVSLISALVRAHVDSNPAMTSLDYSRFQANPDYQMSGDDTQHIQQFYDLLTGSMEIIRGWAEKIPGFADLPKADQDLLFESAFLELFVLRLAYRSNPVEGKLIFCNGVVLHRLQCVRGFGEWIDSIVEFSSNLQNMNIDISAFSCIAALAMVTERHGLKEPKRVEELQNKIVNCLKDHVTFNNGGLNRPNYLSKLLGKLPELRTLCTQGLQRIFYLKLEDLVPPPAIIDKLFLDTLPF
# Method: CV-1 cells were grown in Dulbecco's Modified Eagle's medium supplemented with 10% resin-charcoal stripped (Samuels et al., Endocrinology 105:80-85 (1979)) fetal bovine serum, 50 U/ml penicillin G and 50 μg/ml streptomycin sulfate (DMEM-FBS) at 37° C. in 5% CO2. One day prior to transfection, cells were plated to 50-80% confluence using phenol-red free DMEM-FBS. Cells were transfected by lipofection using N-{2-(2,3)-dioleoyloxy)propyl-N,N,N-trimethyl ammonium methyl sulfate} according to the manufacturer's instructions (DOTAP, Boehringer Mannheim). […] Cells were harvested and assayed for luciferase and β-galactosidase activity. All points were performed in triplicate in each experiment and varied by less than 10%. Each experiment was repeated three or more times with similar results.
# This prompted an investigation of the question of whether the RXR DBD is required for activation through the Nurrl pathway. Thus, CV-1 cells were transfected with TK-LUC reporters (300 ng/10^5 cells), CMX-βgal (500 ng/10^5 cells) and the indicated CMX-receptor construct (20 ng/10^5 cells; see FIG. 7D) with or without CMX-RXR-LBD (100 ng/10^5 cells) . […] Normalized luciferase activity was determined and plotted as percent of maximal fold-activation where 100% is defined as the fold activation by T3R, RAR, VDR, the RXR LBD, or Nurrl+RXR LBD. […]
# GST-RXR/RAR heterodimers = molecular target: T2, GST-RXR/RAR heterodimers (Homo sapiens, UniProt P10276+P19793); assay: Ligand binding assay with GST-RXR/RAR heterodimers
# T2 sequence (P19793 1-462): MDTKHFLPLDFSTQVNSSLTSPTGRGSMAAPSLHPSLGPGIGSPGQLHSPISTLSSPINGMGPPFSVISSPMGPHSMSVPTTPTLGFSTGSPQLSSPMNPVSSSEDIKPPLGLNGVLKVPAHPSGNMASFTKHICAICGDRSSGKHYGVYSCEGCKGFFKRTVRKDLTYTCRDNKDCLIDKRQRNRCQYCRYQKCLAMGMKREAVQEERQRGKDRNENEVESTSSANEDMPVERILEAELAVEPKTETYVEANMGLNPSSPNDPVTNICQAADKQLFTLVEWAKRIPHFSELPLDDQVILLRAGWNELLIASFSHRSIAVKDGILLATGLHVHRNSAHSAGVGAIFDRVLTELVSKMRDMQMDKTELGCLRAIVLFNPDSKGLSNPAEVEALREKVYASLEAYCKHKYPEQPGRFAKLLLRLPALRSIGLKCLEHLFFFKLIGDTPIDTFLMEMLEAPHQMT
# T2 sequence (P10276 1-462): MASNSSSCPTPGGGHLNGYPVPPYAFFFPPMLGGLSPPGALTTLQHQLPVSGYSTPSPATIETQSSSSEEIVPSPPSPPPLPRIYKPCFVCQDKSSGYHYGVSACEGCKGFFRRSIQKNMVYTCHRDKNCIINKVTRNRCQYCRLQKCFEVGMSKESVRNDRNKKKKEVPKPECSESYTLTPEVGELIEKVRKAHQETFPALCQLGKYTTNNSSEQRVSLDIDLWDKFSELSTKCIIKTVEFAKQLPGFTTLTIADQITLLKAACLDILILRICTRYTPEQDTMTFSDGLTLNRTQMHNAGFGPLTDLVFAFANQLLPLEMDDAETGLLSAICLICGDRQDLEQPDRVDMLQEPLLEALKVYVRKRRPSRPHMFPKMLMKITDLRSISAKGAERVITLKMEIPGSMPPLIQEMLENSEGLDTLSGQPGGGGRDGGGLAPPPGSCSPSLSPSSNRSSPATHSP
# GAL-RXR = molecular target: T3, GAL-RXR (Homo sapiens, UniProt P19793); assay: Transient transfection analysis of GAL-RXR LBD alone (UASG x4 TK-LUC, CV-1 cells); format: cell-based; settings: 100 nM LG69
# T3 construct: human RXRα LBD (Glu 203 - Thr 462); expressed in transfected cells; host or cells: CV-1
# T3 sequence (P19793 203-462): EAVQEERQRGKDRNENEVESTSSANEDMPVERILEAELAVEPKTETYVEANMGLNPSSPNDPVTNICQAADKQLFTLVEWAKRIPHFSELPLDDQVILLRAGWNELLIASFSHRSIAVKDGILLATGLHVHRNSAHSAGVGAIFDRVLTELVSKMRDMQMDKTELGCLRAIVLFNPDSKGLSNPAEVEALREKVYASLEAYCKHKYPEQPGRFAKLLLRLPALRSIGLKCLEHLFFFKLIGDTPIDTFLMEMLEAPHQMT
# Method: CV-1 cells were grown in Dulbecco's Modified Eagle's medium supplemented with 10% resin-charcoal stripped (Samuels et al., Endocrinology 105:80-85 (1979)) fetal bovine serum, 50 U/ml penicillin G and 50 μg/ml streptomycin sulfate (DMEM-FBS) at 37° C. in 5% CO2. One day prior to transfection, cells were plated to 50-80% confluence using phenol-red free DMEM-FBS. Cells were transfected by lipofection using N-{2-(2,3)-dioleoyloxy)propyl-N,N,N-trimethyl ammonium methyl sulfate} according to the manufacturer's instructions (DOTAP, Boehringer Mannheim). […]. All points were performed in triplicate in each experiment and varied by less than 10%. Each experiment was repeated three or more times with similar results.
# Thus, a chimeric protein was constructed containing the yeast GAL4 DBD linked to the RXR LBD (GAL-RXR). The ability of this RXR-chimera to respond to LG69 was initially examined in the presence of truncated receptors containing the LBDs of T3R or RAR. Thus, transient transfection analysis of GAL-RXR LBD was carried out in the presence of T3R, RAR or VDR LBDs. Reporter constructs contained 4 copies of the UASG cloned upstream of the TK-LUC reporter. […] Normalized luciferase activity was determined and plotted as reporter activity (see FIG. 3).
# […]. Normalized luciferase activity was determined and plotted as fold-activation relative to untreated cells.
structure (smiles),measurement,setting,value
"CC=C(c1ccc(C(=O)O)cc1)c1cc2c(cc1C)C(C)(C)CCC2(C)C [LG69, 4-{1-(3,5,5,8,8-pentamethyl-5,6,7,8-tetrahydro-2-napthalenyl)-1-propenyl}benzoic acid]",LG69 responsiveness conferred upon Nurrl by the RXR LBD,Nurrl+RXR LBD,strong
same,competition of [3H] 9-cis RA binding by addition of both Am580 and LG69,"GST-RXR/RAR heterodimers; 50 nM [3H] 9-cis RA, 2 μM Am580 + 2 μM LG69",Nearly complete competition
same,decrease in the amount of [3H] LG69 bound to GST-RXR on addition of RAR,"GST-RXR/RAR heterodimers; 50 nM [3H] LG69, 500 ng hRARα",< 85%
same,activation of the UASG reporter by GAL-RXR in response to ligand,GAL-RXR,activated
same,fold response to LG69,GAL-RXR; GAL-RXR alone,69 fold
